From US9655363B2, “Microbiocides” (Syngenta Participations AG, priority 2013, dated 2017)

Experiments:
[1] = test system: Thanatephorus Cucumeris (Rhizoctonia Solani); assay: Thanatephorus cucumeris (Rhizoctonia solani) / liquid culture (foot rot, damping-off); type: cell-based; conditions: liquid culture (PDB), growth inhibition photometrically 3-4 days after application, read-out: disease control
Experimental: Fungicidal Activity Against Thanatephorus Cucumeris (Rhizoctonia Solani)/Liquid Culture (Foot Rot, Damping-Off) Mycelia fragments of a newly grown liquid culture of the fungus were directly mixed into nutrient broth (PDB potato dextrose broth). After placing a (DMSO) solution of the test compounds into a microtiter plate (96-well format), the nutrient broth containing the fungal material was added. The test plates were incubated at 24° C. and the inhibition of growth was determined photometrically 3-4 days after application. Compounds (from table T1) 1, 2, 4, 7, 8, 10, 11, 13, 14 and 17 at 200 ppm give at least 80% disease control in this test when compared to untreated control leaf disks under the same conditions, which show extensive disease development.

[2] = test system: Mycosphaerella Arachidis (Cercospora Arachidicola); assay: Mycosphaerella arachidis (Cercospora arachidicola) / liquid culture (early leaf spot); type: cell-based; conditions: liquid culture (PDB), growth inhibition photometrically 4-5 days after application, read-out: disease control
Experimental: (§1) Fungicidal Activity Against Mycosphaerella Arachidis (Cercospora Arachidicola)/Liquid Culture (Early Leaf Spot) Conidia of the fungus from cryogenic storage were directly mixed into nutrient broth (PDB potato dextrose broth). After placing a (DMSO) solution of test compound into a microtiter plate (96-well format), the nutrient broth containing the fungal spores was added. The test plates were incubated at 24° C. and the inhibition of growth was determined photometrically 4-5 days after application.

[3] = test system: Mycosphaerella Graminicola (Septoria Tritici); assay: Mycosphaerella graminicola (Septoria tritici) / liquid culture (Septoria blotch); type: cell-based; conditions: Zymoseptoria tritici, liquid culture (PDB), growth inhibition photometrically 4-5 days after application, read-out: disease control
Experimental: as §1, with “Graminicola (Septoria Tritici)/Liquid” for “Arachidis (Cercospora Arachidicola)/Liquid”, “(Septoria Blotch)” for “(Early Leaf Spot)”

[4] = test system: Puccinia Recondita f. sp. Tritici; assay: Puccinia recondita f. sp. tritici / wheat / leaf disc preventative (brown rust); type: in vivo; conditions: foliar, wheat leaf disc cv. Kanzler, compared to untreated, 7-9 days after application, read-out: disease control
Experimental: Fungicidal Activity Against Puccinia Recondita f. sp. Tritici/Wheat/Leaf Disc Preventative (Brown Rust) Wheat leaf segments cv. Kanzler were placed on agar in multiwell plates (24-well format) and sprayed with the formulated test compound diluted in water. The leaf disks were inoculated with a spore suspension of the fungus 1 day after application. The inoculated leaf segments were incubated at 19° C. and 75% rh under a light regime of 12 h light/12 h darkness in a climate cabinet and the activity of a compound was assessed as percent disease control compared to untreated when an appropriate level of disease damage appears in untreated check leaf segments (7-9 days after application).

[5] = test system: Blumeria Graminis f. sp. Tritici (Erysiphe Graminis f. sp. Tritici); assay: Blumeria graminis f. sp. tritici / wheat / leaf disc preventative (powdery mildew on wheat); type: in vivo; conditions: foliar, wheat leaf disc cv. Kanzler, compared to untreated, 6-8 days after application, read-out: disease control
Experimental: Fungicidal Activity Against Blumeria Graminis f. sp. Tritici (Erysiphe Graminis f. sp. Tritici)/Wheat/Leaf Disc Preventative (Powdery Mildew on Wheat) Wheat leaf segments cv. Kanzler were placed on agar in a multiwell plate (24-well format) and sprayed with the formulated test compound diluted in water. The leaf disks were inoculated by shaking powdery mildew infected plants above the test plates 1 day after application. The inoculated leaf disks were incubated at 20° C. and 60% rh under a light regime of 24 h darkness followed by 12 h light/12 h darkness in a climate chamber and the activity of a compound was assessed as percent disease control compared to untreated when an appropriate level of disease damage appears on untreated check leaf segments (6-8 days after application).

[6] = test system: Puccinia Recondita f. sp. Tritici; assay: Puccinia recondita f. sp. tritici / wheat / leaf disc curative (brown rust); type: in vivo; conditions: foliar, 192 h, compared to untreated, 8 days after inoculation, read-out: disease control
Experimental: Fungicidal Activity Against Puccinia Recondita f. sp. Tritici/Wheat/Leaf Disc Curative (Brown Rust) Wheat leaf segments are placed on agar in multiwell plates (24-well format). The leaf disks are then inoculated with a spore suspension of the fungus. One day after inoculation the test solution is applied. After appropriate incubation the activity of a compound is assessed 8 dpi (days after inoculation) as curative fungicidal activity. Dose range: 200-22 ppm.

OC(Cn1cncn1)(c1ccc(Cl)cc1)C1(c2ccccn2)CC1 (stereo not drawn) [Compound 1, 1-(4-chlorophenyl)-1-[1-(2-pyridyl)cyclopropyl]-2-(1,2,4-triazol-1-yl)ethanol]
≥ 80%: inhibition of growth at 200 ppm [1] | inhibition of growth at 200 ppm [2] | inhibition of growth at 200 ppm [3] | pest or weed control at 200 ppm [4] | pest or weed control at 200 ppm [5] | pest or weed control at 200 ppm [6]
